The text below walks through data of US10080748B2, “Use of flap inhibitors to reduce neuroinflammation mediated injury in the central nervous system” (Bioscience Pharma Partners, LLC, priority 2014, dated 2018).

SMILES strings stand for the structures.

For data set [1], the system named is leukotriene LTC4 production. Description: LTC4 levels in brain after rat fluid percussion injury (RP LC-MS/MS). The format is in vivo. As for the experimental part:
(§1) Craniotomy and lateral fluid percussion injury (FPI) were performed using a previously validated and published procedure. Farias S, et al. J. Neurotraum, 26, 1977-1986, 2009; Frey L. C. et al. J. Neurosci. Methods 177, 267-272, 2009. Throughout the specification animals subjected to this protocol are referred to as having a TBI since this treatment protocol is a TBI model. Briefly, rats were anesthetized with 3-5% isoflurane, isosol, VEDCO Inc., St. Joseph, Mo., via nose cone and mounted in a stereotaxic head frame. A 3 millimeter (mm) craniotomy was created and centered at 3 mm caudal to bregma and 3.5 mm left of the sagittal suture, keeping the exposed dura intact. One steel support screw was embedded in the skull on the contralateral side. A Luer-Lock hub with an inside diameter of 3.5 mm was centered over the craniotomy and bonded to the skull with cyanoacrylate adhesive and capped. Dental acrylic, Snap, Parka, Inc., Edgewood, N.J., was poured around the huh and screw. After the acrylic hardened antibiotic ointment was applied around the cap and the animals were returned to their cages. The next day, approximately 15-20 hours later, animals were anesthetized with isoflurane in an induction chamber, immediately connected to the FPI apparatus, and received a 20 millisecond (ms) pulse of pressurized sterile saline at 2.7 atmospheres (atm) of pressure to simulate a moderate severity impact on the intact dural surface through the craniotomy before awakening from anesthesia. […] All animals received a subcutaneous injection of the analgesic, buprenorphine, 0.05 milligram/kilogram (mg/kg) Buprenex, prior to craniotomy, and subsequent injections every 12 hours for two days. Moistened food pellets were provided after injury, and all animals were monitored daily for well-being and weight changes.
Two groups of four rats each were subjected to FPI as described above. Four days prior to the FPI, each animal was briefly anesthetized for less than 5 minutes with 3-3.5% isoflurane and administered either NaCl 0.9%, 2 ml/kg IV (vehicle) or vinblastine sulfate 0.5 mg/kg IV in an identical volume. Neutrophil depletion was verified by complete cell blood counts (CBC) in vinblastine treated animals 4 days after administration. Both groups were euthanized by decapitation and the brain lipids extracted 1 hour after FPI. The amounts of LTC4 formed, measured by RP LC-MS/MS and normalized per milligram of protein, were compared between groups using one-way analysis of variance and the Student-Newman-Keuls test for multiple comparisons.
The indole FLAP inhibitor MK-886 was prepared at a dose of 2.5 milligram/milliliter (mg/ml), dissolved in dimethyl sulfoxide (DMSO) and then diluted with 0.9% saline to 10% DMSO. The rats were briefly anesthetized with 3-3.5% isoflurane and either […] at a dose of 6 mg/kg or vehicle was administered intravenously (IV) by tail vein injection. All animals were allowed to wake before undergoing additional procedures.
Cortical and hippocampal regions from ipsilateral and contralateral hemispheres were collected in 4 ml of 80% methanol, homogenized with a Dounee homogenizer, and internal standards were added to the homogenates. Protein content was measured using bicinchoninic acid assay (BCA) for protein to normalize lipid levels to the amount of tissue. Samples were centrifuged and the supernatant was collected. Samples were diluted to a final methanol concentration of lower than 15% and then the lipids were extracted using a solid phase extraction cartridge, Strata C18-E, 100 mg/1 ml, Phenomenex, Torrence Calif. The eluate, 1 ml of methanol, was dried down and reconstituted in 70 microliters (μl) of High Performance Liquid Chromotography (HPLC) solvent A, which is 8.3 mM acetic acid buffered to pH 5.7 with NH4OH, plus […] of solvent B, which is acetonitrile/methanol, 65/35, v/v. […]

Data set [2] has as its system human whole blood. Nature of the data set: Human whole blood bioassay of LTB4, 5-HETE and AA production. The format is cell-based. To be noted: human whole blood; data not shown. The text has this:
The results are for the effects of these two FLAP inhibitors on LTB4 production and 5-HETE production. It is known that indole-acetic acid FLAP inhibitors like MK-886, MK-591 display high plasma protein binding. Thus, the potencies of these FLAP inhibitors for blocking leukotrienes in vivo are about 100 fold higher than the affinity of the inhibitors for FLAP binding. The inventors developed a bioassay that closely predicts the in vivo potency of FLAP inhibitors using human whole blood. Briefly, whole blood is incubated with a calcium ionophore like […] or zymosan in the absence or presence of increasing concentrations of a FLAP inhibitor. After incubation at 37° C. for 30 minutes, the samples are centrifuged and the plasma supernatant is subjected to reverse phase liquid chromatography coupled to tandem mass spectrometry to quantify levels of LTB4, 5-HETE, and AA production. Drug IC50 values are determined by non-linear regression analysis (GraphPad Prism).). […] As FLAP inhibitors are poorly water soluble drugs, the inventors have shown that such hydrophobic drugs can be formulated in a carrier comprising one or more vegetable oils, such as olive oil, and phosphatidylserine that are found on the Generally Accepted as Safe (GRAS) list and that such drugs can then be rapidly delivered and targeted to the brain and upper spinal cord. Hanson L R, et al, Drug Delivery 19(3):149-54, 2012.

For data set [3] the following is noted: cited from earlier work.
The test system of data set [4] is rats subjected to FPI (TBI model). Nature of the data set: Radial arms water maze (RAWM) after TBI (rat FPI). The data set is classed as in vivo. The procedure: as §1
The indole FLAP inhibitor MK-886 was prepared at a dose of 2.5 milligram/milliliter (mg/ml), dissolved in dimethyl sulfoxide (DMSO) and then diluted with 0.9% saline to 10% DMSO. The rats were briefly anesthetized with 3-3.5% isoflurane and either […] at a dose of 6 mg/kg or vehicle was administered intravenously (IV) by tail vein injection. […]
The radial arms water maze (RAWM) consists of six 50 centimeter (cm) radial arms emanating from a circular area in a 160 cm diameter tank of 20.5° C. water, surrounded by 4 walls, each with a unique pattern. […] The start arm for each trial was determined in a pseudorandom fashion with three randomized sequences of the live non-goal arms. […] Videos for each of the 30 trials per animal were analyzed using Topscan (Cleversys Inc.) tracking software for errors and perseverance duration. […]
All data shown are mean+/−standard error of the mean unless otherwise noted. Results were analyzed in SPSS 20 (IBM) or Prism 5.0 (GraphPad). […]

Setting [5] is: MK-886 6 mg/kg IV 30 minutes prior to TBI, 1 hour after TBI.
[6] abbreviates: MK-886 6 mg/kg IV 30 minutes prior to TBI, measured 1 hour after TBI.
Where [7] appears, read: single dose 15 minutes after TBI.

For the compound `CC(C)c1ccc2c(c1)c(SC(C)(C)C)c(CC(C)(C)C(=O)O)n2Cc1ccc(Cl)cc1` [MK-886, 1-[(4-Chlorophenyl)methyl]-3-[(1,1-dimethylethyl)thio]-α,α-dimethyl-5-(1-methylethyl)-1H-Indole-2-propanoic acid], in data set [1] (setting [5]), the “LTC4 levels lower than vehicle-treated injured animals, contralateral right hemisphere” value is reported as 64% and the “LTC4 levels lower than vehicle-treated injured animals, ipsilateral left hemisphere” value turned out to be 85%. In data set [1] (setting [6]), the “LTC4 level, contralateral right hemisphere” value is reported as 2.6+/−0.80 pg/mg protein and the “LTC4 level, ipsilateral left hemisphere” value is given as 3.39+/−0.42 pg/mg protein. In data set [1] (MK-886-treated injured rats), the “LTC4 level, ipsilateral cortex” value was “undetectable” and the “LTC4 level, ipsilateral hippocampus” value is recorded as “undetectable”. In data set [1] (setting [7]), the “LTC4 level, contralateral hemisphere” value is “below the detectable threshold” and the “LTC4 level, ipsilateral hemisphere” value was “below the detectable threshold”. The AA production entry in data set [2] is reported as “neither of the FLAP inhibitors effected AA production”. The plasma protein binding entry in data set [3] was “high”. Also, the “initial task learning versus vehicle” value in data set [4] (Day 1, 15 swim trials, within sham group or within TBI group) is recorded as “no significant differences”. Besides, in data set [4] (TBI animals, injection 30 minutes post-injury, Day 2), the “errors per swim, last five swim trials of the reversal task” value is 1.26+/−0.700. Also, the “perseverance for the previous goal arm, swim 1 to swim 3 of reversal task” value in data set [4] (TBI rats, injection 30 minutes post-injury, Day 2) is given as “spent less time in the previous goal arm by swim 3”. The “errors per swim, last five swim trials of the reversal task” value in data set [4] (sham animals, injection 30 minutes post-injury, Day 2) was 0.850+/−0.583.
